From patent publication US7951979B2, “2,4,6-trisubstituted phenols having anesthetic properties” (University of Iowa Research Foundation, priority 2006, dated 2011)

Key:
rats = experiment: i.v. injection into the lateral tail vein of rats, loss of righting reflex / anesthesia
Procedure: Compound 1 was formulated in 16% Cremophor EL solution in water at a concentration of approximately 15 mg/ml and tested in rats as follows.
Approximately 15 mg/kg of Compound 1 in the suspension were injected into the lateral tail vein of two rats (weight 330-340 g).

GABA receptors = experiment: in vitro assay for direct GABA activation; format: cell-based; conditions: FIG. 2
Excerpt: Propofol and analogs are known to activate GABA receptors (see, e.g., Trapani et al., J. Med. Chem. 1998, 41, 1846-1854, incorporated herein by reference). While the relationship between GABA activation and anesthetic activity is not completely clear, it is believed that the ability of a compound to directly activate GABA receptors may be related to the anesthetic, sedative, and/or anxiolytic activity of the compound. Compounds of the invention can be tested in in vitro electrophysiological assays to determine the ability of the compound to activate GABA receptors.
Compound 1 was synthesized as described in Example 1. The compound was tested in an in vitro assay for direct GABA activation.

[1] = Rat 1, approximately 15 mg/kg i.v. (lateral tail vein), 16% Cremophor EL in water
[2] = rat, conditions similar to Example 2 (similar dose and route of administration)

| SMILES | time post-injection at which the rat appeared normal (rats; [1]) | total time of loss of righting reflex (rats; [1]) | total time of loss of righting reflex (rats; Rat 2 (agitated prior to injection), approximately 15 mg/kg i.v. (lateral tail vein), 16% Cremophor EL in water) | duration of anesthesia (rats; rats, about 15 mg/kg i.v.) [min] | tremors, agitation or excitement on injection (rats; rats, about 15 mg/kg i.v.) | overall anesthetic activity (rats; rats, i.v.) | direct activation of GABA receptors (GABA receptors) | induction of anesthesia (rats; [2]) | tremors and shaking upon i.v. injection (rats; [2]) |
| --- | --- | --- | --- | --- | --- | --- | --- | --- | --- |
| CC(C)c1cc(C(O)C(F)(F)F)cc(C(C)C)c1O (stereo not drawn) [Compound 1, 2,6-diisopropyl-4-(2,2,2-trifluoro-1-hydroxy-ethyl)-phenol] | about 7.5 minutes | about 3.5 minutes | about 2.0 minutes | 2 to 3 | without tremors, agitation or excitement | potent short-acting i.v. anesthetic | capable of direct activation of GABA receptors | – | – |
| CC(C)c1cc(C(=O)C(F)(F)F)cc(C(C)C)c1O [Compound 2, 2,2,2-trifluoro-1-(4-hydroxy-3,5-diisopropyl-phenyl)-ethanone] | – | – | – | – | – | – | – | did not appear to induce anesthesia | caused tremors and shaking |
